Laboratory results: paper PMC3552554 (Thrombosis and haemostasis, 2010)
Non-standard residues stand in square brackets, D forms with d. Residues, ends and D or L forms follow the SMILES beside them. Oic = O=C(O)[C@@H]1C[C@@H]2CCCC[C@@H]2N1; Phe(4-Me) = Cc1ccc(C[C@H](N)C(=O)O)cc1

Key:
Tail bleeding time = assay type: in vivo, mouse; details: 3 mg/ml in drinking water, 5 days; n = 6; untreated 79±11 sec (n = 5), p = 0.38
[1] = 3 mg/ml in drinking water; cited from earlier work
[2] = administered intravenously; cited from earlier work
[3] = cited from earlier work
PC3-luc cells [4] = assay type: cell-based, human
PC3-luc cells [5] = test: Matrigel invasion assay, α-thrombin-stimulated; assay type: cell-based, human; details: 1 nM α-thrombin overnight, p = 0.02, 3 independent experiments
thrombin [6] = target: T1, thrombin (Homo sapiens, UniProt P00734); test: Plasma thrombin clotting time after oral treatment; assay type: in vivo, mouse; details: 3 mg/ml in drinking water
PC3-luc tumors = test: PC3-luc tumor growth in nude mice; assay type: in vivo; details: oral 3 mg/ml in drinking water
PC3 tumor vessels = test: PECAM; assay type: in vivo, nude mice; details: treated tumors, 3 mg/ml in drinking water; untreated 4.6 ± 2.1/hpf, p = 0.04
thrombin [7] = details: direct thrombin inhibitor; cited from earlier work
human platelets = details: cited from earlier work
[8] = system: carotid artery thrombosis; details: cited from earlier work
thrombin [9] = target: T1, thrombin; details: cited from earlier work

Structure (SMILES): Cc1ccc(C[C@H](NC(=O)[C@@H](C)NC(=O)[C@@H]2CCCN2C(=O)[C@@H]2C[C@@H]3CCCC[C@@H]3N2C(=O)[C@H](N)CCCN=C(N)N)C(N)=O)cc1 [FM19, D-Arg-Oic-Pro, D-Ala-Phe(pMe)] (H-[dR][Oic]P[dA][Phe(4-Me)]-NH2)
- mean tail bleeding time (Tail bleeding time): 92 ± 8 s
- effect on mouse bleeding time [1]: does not prolong the mouse bleeding time
- clearance [2]: 8.2 ± 5.1 mL/min/kg
- t1/2α [2]: 32.5 ± 2.9 min
- plasma concentration ([3]; 5 mg/ml steady-state oral): 173 ± 16 ng/mL
- steady-state plasma concentration ([3]; oral 3 mg/ml in the drinking water, after 5 days): 80 ng/mL

Structure (SMILES): Cc1ccc(C[C@H](NC(=O)[C@@H](C)NC(=O)[C@@H]2CCCN2C(=O)[C@@H]2C[C@@H]3CCCC[C@@H]3N2C(=O)[C@H](N)CCCNC(=N)N)C(N)=O)cc1 [FM19, D-Arg-Oic-Pro, D-Ala-Phe(pMe)] (H-[dR][Oic]P[dA][Phe(4-Me)]-NH2; N-terminus and C-terminus assumed)
- IC50 (PC3-luc cells [4]): 15 µM
- concentration that inhibited α-thrombin-induced calcium mobilization (PC3-luc cells [4]; PC3-luc cells, 1 nM α-thrombin): 1 to 100 µM
- lowest concentration that significantly decreased the number of invading cells (PC3-luc cells [5]): 0.1 µM
- thrombin clotting time (thrombin [6]; 5 days, n = 6, untreated 16±1 sec, p < 0.003): 22 ± 1 s
- increase in the thrombin clotting time (thrombin [6]; treated vs untreated): 1.4 fold
- mean tumor weight (PC3-luc tumors; 5 weeks, 10 tumors, untreated 0.82 ± 0.32 g, p = 0.04): 0.5 ± 0.31 g
- mean tumor growth rate (PC3-luc tumors; day 14 to day 28, bioluminescence normalized to day 7, untreated 0.55 ± 0.35, p = 0.038): 0.26 ± 0.17 fold change/day
- number of large vessels (> 10 microns) (PC3 tumor vessels): 1.4 ± 1.4 /hpf
- Ki (thrombin [7]): 4.4 ± 2.4 µM
- inhibits the threshold of α-thrombin-induced human platelet aggregation (human platelets): 8.4 ± 4.7 µM
- effect on time to carotid artery occlusion ([8]; 3 mg/ml in drinking water, rose Bengal assay): does not prolong the mouse bleeding time or delay time to carotid artery occlusion
- effect on induced arterial thrombosis ([8]; 5 mg/ml in drinking water): delays induced arterial thrombosis
- prolongation of the arterial thrombosis time ([8]; 5 mg/ml steady-state oral): 2.7 fold
- prolongation of the plasma thrombin clotting time (thrombin [9]; 3 mg/ml in drinking water, after 5 days): 1.4 times
- prolongation of the thrombin clotting time (thrombin [9]; 5 mg/ml steady-state oral): 7.3 fold
